Literature values in PMC7544826 (Communications Biology, 2020).

Experiments:
adenosine receptors = settings: through the adenosine receptors; cited from earlier work
[1] = in vivo; cited from earlier work

In the case of `Cn1c(=O)c2c(ncn2C)n(C)c1=O` [caffeine, 1,3,7-trimethylxanthine], the “Concentration at which CNS stimulating effects are apparent” value (adenosine receptors) is listed as 2.5 µM and the “Plasma concentration at therapeutic use” value [1] is listed as at most 150 µM.
